The text below walks through data of patent US11541107B2, “Peptides and T cells for use in immunotherapeutic treatment of various cancers” (Immatics Biotechnologies GmbH, priority 2015, dated 2023).

The test system of experiment [1] is CD8+ T cells. Put plainly: In vitro T-cell priming assay (aAPCs loaded with peptide/MHC and anti-CD28, pMHC multimer readout; HLA-A*02 and HLA-A*24). The experiment is classed as cell-based, human. As to conditions: in vitro immunogenicity of HLA class I peptides; peptide-specific T cells by pMHC multimer staining. The text has this:
In order to obtain information regarding the immunogenicity of the TUMAPs of the present invention, the inventors performed investigations using an in vitro T-cell priming assay based on repeated stimulations of CD8+ T cells with artificial antigen presenting cells (aAPCs) loaded with peptide/MHC complexes and anti-CD28 antibody.
In order to perform in vitro stimulations by artificial antigen presenting cells loaded with peptide-MHC complex (pMHC) and anti-CD28 antibody, the inventors first isolated CD8+ T cells from fresh HLA-A*02 leukapheresis products via positive selection using CD8 microbeads (Miltenyi Biotec, Bergisch-Gladbach, Germany) of healthy donors obtained from the University clinics Mannheim, Germany, after informed consent.
PBMCs and isolated CD8+ lymphocytes were incubated in T-cell medium (TCM) until use consisting of RPMI-Glutamax (Invitrogen, Karlsruhe, Germany) supplemented with 10% heat inactivated human AB serum (PAN-Biotech, Aidenbach, Germany), 100 U/ml Penicillin/100 μg/ml Streptomycin (Cambrex, Cologne, Germany), 1 mM sodium pyruvate (CC Pro, Oberdorla, Germany), 20 μg/ml Gentamycin (Cambrex). 2.5 ng/ml IL-7 (PromoCell, Heidelberg, Germany) and 10 U/ml IL-2 (Novartis Pharma, Nürnberg, Germany) were also added to the TCM at this step.
Generation of pMHC/anti-CD28 coated beads, T-cell stimulations and readout was performed in a highly defined in vitro system using four different pMHC molecules per stimulation condition and 8 different pMHC molecules per readout condition.
The purified co-stimulatory mouse IgG2a anti human CD28 Ab 9.3 (Jung et al., 1987) was chemically biotinylated using Sulfo-N-hydroxysuccinimidobiotin as recommended by the manufacturer (Perbio, Bonn, Germany). Beads used were 5.6 μm diameter streptavidin coated polystyrene particles (Bangs Laboratories, Illinois, USA).
pMHC used for positive and negative control stimulations were A*0201/MLA-001 (peptide […] (SEQ ID NO. 418) from modified Melan-A/MART-1) and A*0201/DDX5-001 ([…] from DDX5, SEQ ID NO. 419), respectively.
800.000 beads/200 μl were coated in 96-well plates in the presence of 4×12.5 ng different biotin-pMHC, washed and 600 ng biotin anti-CD28 were added subsequently in a volume of 200 μl. Stimulations were initiated in 96-well plates by co-incubating 1×10^6 CD8+ T cells with 2×10^5 washed coated beads in 200 μl TCM supplemented with 5 ng/ml IL-12 (PromoCell) for 3 days at 37° C. Half of the medium was then exchanged by fresh TCM supplemented with 80 U/ml IL-2 and incubating was continued for 4 days at 37° C. This stimulation cycle was performed for a total of three times. For the pMHC multimer readout using 8 different pMHC molecules per condition, a two-dimensional combinatorial coding approach was used as previously described (Andersen et al., 2012) with minor modifications encompassing coupling to 5 different fluorochromes. Finally, multimeric analyses were performed by staining the cells with Live/dead near IR dye (Invitrogen, Karlsruhe, Germany), CD8-FITC antibody clone SK1 (BD, Heidelberg, Germany) and fluorescent pMHC multimers. For analysis, a BD LSRII SORP cytometer equipped with appropriate lasers and filters was used. Peptide specific cells were calculated as percentage of total CD8+ cells. Evaluation of multimeric analysis was done using the FlowJo software (Tree Star, Oregon, USA). In vitro priming of specific multimer+CD8+ lymphocytes was detected by comparing to negative control stimulations.
Exemplary flow cytometry results after TUMAP-specific multimer staining for 2 peptides of the invention are shown in FIGS. 3A-3B together with corresponding negative controls. Results for 5 peptides from the invention are summarized in Table12A. Exemplary flow cytometry results after TUMAP-specific multimer staining for 7 peptides of the invention are shown in FIGS. 4A-4C and FIGS. 5A-5D together with corresponding negative controls.

The target of experiment [2] is HLA-A*02 (Homo sapiens, UniProt P04439, D140Y/D185E/D98H/E176V/E277Q/G131W/G231S/I119V/I121R/I166T/I218V/L300P/N151K/N90K/P208A/P217A/Q86G/Q94H/R138H/R169H). Put plainly: MHC binding assay, UV-ligand exchange with beta2m ELISA, HLA-A*02. As to conditions: binding to HLA-A*02 ranged by peptide exchange yield (UV-ligand exchange, beta2m ELISA). Summed up:
(§1)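 Peptide–MHC complexes made by UV-ligand exchange of a UV-cleavable peptide. Exchange yield measured by ELISA: monomers diluted 100-fold on streptavidin-coated plates, 1 h at 37°C, detected with HRP anti-β2m (2 ug/ml) and TMB, absorbance at 450 nm.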
A general note: An ELISA detects its analyte on a solid surface through an enzyme-linked reagent.

For experiment [3], the system named is HLA-A*24. Put plainly: MHC binding assay, UV-ligand exchange with beta2m ELISA, HLA-A*24. As to conditions: binding to HLA-A*24 ranged by peptide exchange yield (UV-ligand exchange, beta2m ELISA). The arrangement: species or system human. A digest of the protocol:
as §1

On to “2 (ALYGKLLKL; listed as Homo sapiens) [compound 2]”, for which, in experiment [1], the “Wells positive [%]” value is on record as “++++ (>=70% = ++++)”. Further, the Peptide exchange result in experiment [2] is “+++ (50%-75% = +++)”.

Take “9 (FLGDYVENL; listed as Homo sapiens) [compound 9]”: the “Wells positive [%]” value in experiment [1] is listed as “+ (<20% = +)”. Also, in experiment [2], the Peptide exchange entry is on record as “++ (20%-49% = ++)”.

Turning to “17 (ILHEHHIFL; listed as Homo sapiens) [compound 17]”, in experiment [1], the “Wells positive [%]” value is recorded as “+ (<20% = +)”. Also, the Peptide exchange entry in experiment [2] is on record as “+++ (50%-75% = +++)”.

“166 (FYTLPFHLI; listed as Homo sapiens) [compound 166]”: the “Wells positive [%]” value in experiment [1] is “++++ (>=70% = ++++)”. Besides, the Peptide exchange entry in experiment [3] is recorded as “++++ (>=75% = ++++)”.

As for “172 (VFIFKGNEF; listed as Homo sapiens) [compound 172]”, in experiment [1], the “Wells positive [%]” value was “+ (<20% = +)”. Moreover, the Peptide exchange result in experiment [3] was “++++ (>=75% = ++++)”.

Consider “186 (VFTTSSNIF; listed as Homo sapiens) [compound 186]”, for which the “Wells positive [%]” value in experiment [1] is listed as “+ (<20% = +)”. For the same substance, the Peptide exchange result in experiment [3] is “++++ (>=75% = ++++)”.

Take “365 (VFIDHPVHL; listed as Homo sapiens) [compound 365]”: in experiment [1], the “Wells positive [%]” value is “+ (<20% = +)”. The Peptide exchange entry in experiment [3] is “++++ (>=75% = ++++)”.

On to “96 (YYTQYSQTI; listed as Homo sapiens) [compound 96]”, for which the “Wells positive [%]” value in experiment [1] is “+ (<20% = +)”. The Peptide exchange result in experiment [3] was “++++ (>=75% = ++++)”.

With “157 (DYIPASGFALF; listed as Homo sapiens) [compound 157]”, the “Wells positive [%]” value in experiment [1] is on record as “+ (<20% = +)”. For the same substance, in experiment [3], the Peptide exchange entry is listed as “+++ (50%-75% = +++)”.

Take “162 (KYTSYILAF; listed as Homo sapiens) [compound 162]”: the “Wells positive [%]” value in experiment [1] is “+ (<20% = +)”. Also, in experiment [3], the Peptide exchange result is “++ (20%-49% = ++)”.

In the case of “356 (NYMPGQLTI; listed as Homo sapiens) [compound 356]”, the “Wells positive [%]” value in experiment [1] was “+ (<20% = +)”. The Peptide exchange entry in experiment [3] is listed as “++++ (>=75% = ++++)”.

With “322 (ALVSGGVAQA; listed as Homo sapiens) [compound 322]”, the “Wells positive [%]” value in experiment [1] is “+ (<20% = +)”. The Peptide exchange entry in experiment [2] is listed as “+++ (50%-75% = +++)”.

Turning to “177 (VYFKAGLDVF; listed as Homo sapiens) [compound 177]”, the “Wells positive [%]” value in experiment [1] is given as “+ (<20% = +)”. Besides, the Peptide exchange entry in experiment [3] is “+++ (50%-75% = +++)”.

Take “181 (VYPPYLNYL; listed as Homo sapiens) [compound 181]”: the “Wells positive [%]” value in experiment [1] was “++++ (>=70% = ++++)”. Further, in experiment [3], the Peptide exchange entry is “+++ (50%-75% = +++)”.

“163 (RYLTISNLQF; listed as Homo sapiens) [compound 163]”: the “Wells positive [%]” value in experiment [1] is “+ (<20% = +)”. Moreover, the Peptide exchange entry in experiment [3] is recorded as “++++ (>=75% = ++++)”.

Regarding “158 (IYEETRGVLKVF; listed as Homo sapiens) [compound 158]”, the “Wells positive [%]” value in experiment [1] is recorded as “+ (<20% = +)”. In addition, the Peptide exchange result in experiment [3] is listed as “+++ (50%-75% = +++)”.

“344 (EYNSDLHQF; listed as Homo sapiens) [compound 344]”: the “Wells positive [%]” value in experiment [1] is given as “+ (<20% = +)”. Moreover, the Peptide exchange result in experiment [3] is listed as “+++ (50%-75% = +++)”.

On to “359 (NYGVLHVTF; listed as Homo sapiens) [compound 359]”, for which the “Wells positive [%]” value in experiment [1] is on record as “+ (<20% = +)”. In addition, the Peptide exchange entry in experiment [3] is given as “++++ (>=75% = ++++)”.

For the substance “7 (AAAAKVPEV; listed as Homo sapiens) [compound 7]”, in experiment [1], the “Wells positive [%]” value was “+ (<20% = +)”. Besides, in experiment [2], the Peptide exchange result is given as “+++ (50%-75% = +++)”.

For the substance “167 (RYGFYYVEF; listed as Homo sapiens) [compound 167]”, in experiment [1], the “Wells positive [%]” value is on record as “++++ (>=70% = ++++)”. Further, the Peptide exchange result in experiment [3] is given as “+++ (50%-75% = +++)”.

Regarding “115 (RYLNKSFVL; listed as Homo sapiens) [compound 115]”, the “Wells positive [%]” value in experiment [1] is recorded as “+ (<20% = +)”. The Peptide exchange result in experiment [3] is “+++ (50%-75% = +++)”.

“156 (YYMELTKLLL; listed as Homo sapiens) [compound 156]”: the “Wells positive [%]” value in experiment [1] is “+ (<20% = +)”. In addition, the Peptide exchange entry in experiment [3] was “++++ (>=75% = ++++)”.

Turning to “104 (SYLTWHQQI; listed as Homo sapiens) [compound 104]”, the “Wells positive [%]” value in experiment [1] is given as “+ (<20% = +)”. For the same substance, in experiment [3], the Peptide exchange result is reported as “++++ (>=75% = ++++)”.

For the substance “190 (LYSELTETL; listed as Homo sapiens) [compound 190]”, the “Wells positive [%]” value in experiment [1] is reported as “++++ (>=70% = ++++)”. Further, the Peptide exchange result in experiment [3] is on record as “+++ (50%-75% = +++)”.

Take “43 (LLWAGPVTA; listed as Homo sapiens) [compound 43]”: the “Wells positive [%]” value in experiment [1] is given as “++++ (>=70% = ++++)”. The Peptide exchange result in experiment [2] was “+++ (50%-75% = +++)”.

In the case of “160 (RYGDGGSSF; listed as Homo sapiens) [compound 160]”, the “Wells positive [%]” value in experiment [1] is recorded as “+ (<20% = +)”. Further, in experiment [3], the Peptide exchange result is on record as “+++ (50%-75% = +++)”.

“106 (IYNETVRDLL; listed as Homo sapiens) [compound 106]”: in experiment [1], the “Wells positive [%]” value is listed as “+ (<20% = +)”. For the same substance, in experiment [3], the Peptide exchange result was “+++ (50%-75% = +++)”.
